According to US11382956B2, “Amylin analogues” (Zealand Pharma A/S, priority 2016, dated 2022):
Numbered stars: 1 amine (or outer) side, 2 acyl side, 3 side chain; on linkers, the order of the positions; unused ones are H or OH. Bridge positions count the residues as written; N and C are the ends. Square brackets hold non-standard residues; d marks the D form. Peptide text beside a SMILES is read from it. * marks the point of attachment. C20 diacid = O=C(O)CCCCCCCCCCCCCCCCCCC(=O)*; γGlu = O=C(O)[C@H](CCC(=O)[*:2])N[*:1]; Hyp = O=C(O)[C@@H]1C[C@@H](O)CN1; NMeI = CC[C@H](C)[C@H](NC)C(=O)O; Aad = N[C@@H](CCCC(=O)O)C(=O)O; Orn = NCCC[C@H](N)C(=O)O; Dab = NCC[C@H](N)C(=O)O; Sar = CNCC(=O)O

Experiments:
[1] = Assessment of physical stability: fibril formation by Thioflavin T fluorescence; assay type: physicochemical; design: key: FND = fibrillation not detected; FD = fibrillation detected; settings: 1 mg/mL peptide; for Fibrillation (in buffer) pH4 acetate: 50 mM acetate buffer pH 4.0, 96 hours at 40° C.; for Fibrillation (in buffer) pH7 histidine: 50 mM histidine buffer pH 7.0, 96 hours at 40° C.; for Fibrillation (in buffer) pH7 phosphate: 50 mM phosphate buffer pH 7.0, 96 hours at 40° C.
How it was run: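 Fibrillation detected (FD) means a significant rise in ThT fluorescence over 96 hours at 40° C, read at 10 min intervals each preceded by 300 s automixing. Samples: 1 mg/mL peptide, 40 μM ThT, in 50 mM phosphate or histidine (pH 7.0) or acetate (pH 4.0), triplicate.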

[2] = Assessment of chemical stability in 40 mM buffers at 40° C. (RP-HPLC); assay type: physicochemical; settings: 1 mg/mL; for % degradation after 72 h at 40° C. pH4 acetate: acetate buffer pH 4, 72 h; for % degradation after 72 h at 40° C. pH6 phosphate: phosphate buffer pH 6, 72 h; for % degradation after 14 days at 40° C. pH6 phosphate: phosphate buffer pH 6, 14 days; for % degradation after 72 h at 40° C. pH7 phosphate: phosphate buffer pH 7, 72 h; for % degradation after 14 days at 40° C. pH7 phosphate: phosphate buffer pH 7, 14 days
How it was run: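 Degradation is the main-peak area-% at each time point minus that at t=0, measured by C8 reversed-phase HPLC (TFA/acetonitrile/water gradient, 220 nm). Incubation at 40° C for 3 or 14 days, 1 mg/mL peptide in 40 mM buffer at pH 4, 6 or 7.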

[3] = Pharmacokinetic (PK) profiling in rats; settings: male, Sprague Dawley, plasma; rat, single sc bolus 30 nmol/kg; read-out: in vivo half life t1/2 (plasma terminal elimination half-life) (converted)
Procedure: Sprague Dawley male rats were given a single subcutaneous (sc) bolus of each peptide to be tested, as specified below.
30 nmol/kg doses of compound were administered. Blood samples were drawn from the tail vein prior to dosing and at 24 and 96 hours after dosing. The rats were euthanized immediately after the last blood sampling by concussion and cervical dislocation.
The dosing vehicle used for each test peptide was a mannitol-containing histidine buffer (pH 7.0). Plasma samples were analyzed after precipitation with ethanol by liquid chromatography mass spectrometry (LC-MS/MS). Mean plasma concentrations were used for calculation of the pharmacokinetic parameters.
Plasma terminal elimination half-life (t1/2) was determined as In(2)/λz, where λz is the magnitude of the slope of the log linear regression of the log concentration versus time profile during the terminal phase.

[4] = Effect on acute food intake and body weight in normal Sprague Dawley rats; assay type: in vivo, Sprague Dawley (SD) rats; settings: Dose: 30 nmol/kg sc, vehicle-corrected
[5] = biological target: T1, recombinant human calcitonin receptor (hCT-R) (Homo sapiens, UniProt P30988); test: hCT-R cAMP assay (AlphaScreen) in 1321N1 cells; assay type: cell-based; settings: cAMP formation, 45 min stimulation
T1 construct: host or cells: human astrocytoma cell line 1321N1
T1 sequence (P30988 25-474): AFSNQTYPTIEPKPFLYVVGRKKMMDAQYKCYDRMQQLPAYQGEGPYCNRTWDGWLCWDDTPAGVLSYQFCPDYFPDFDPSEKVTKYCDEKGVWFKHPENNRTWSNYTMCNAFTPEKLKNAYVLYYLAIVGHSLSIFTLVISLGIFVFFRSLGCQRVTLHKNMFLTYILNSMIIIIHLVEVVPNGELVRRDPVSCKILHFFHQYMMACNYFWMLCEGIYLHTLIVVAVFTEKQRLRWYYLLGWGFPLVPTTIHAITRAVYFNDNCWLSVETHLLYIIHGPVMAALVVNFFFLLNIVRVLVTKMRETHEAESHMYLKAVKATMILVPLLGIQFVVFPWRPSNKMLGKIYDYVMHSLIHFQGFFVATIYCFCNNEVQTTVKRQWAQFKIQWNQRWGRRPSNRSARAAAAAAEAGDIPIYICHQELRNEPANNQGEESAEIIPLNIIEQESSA
How it was run: (§1)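 EC50 values come from curve fits over at least 7 peptide concentrations, with cAMP read by AlphaScreen competition after 1 h in the dark. Cells were 1321N1 lines carrying human calcitonin receptor, with RAMP3 co-expressed for AMY3, treated 45 min at room temperature in the presence of IBMX.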

[6] = biological target: T2, recombinant human amylin 3 receptor (hAMYR3) (Homo sapiens, UniProt O60896+P30988); test: hAMYR3 cAMP assay (AlphaScreen) in 1321N1 cells; assay type: cell-based; settings: cAMP formation, 45 min stimulation
T2 construct: host or cells: human astrocytoma cell line 1321N1
T2 sequence (P30988 25-474): T1 sequence (P30988 25-474)
T2 sequence (O60896 24-148 partner): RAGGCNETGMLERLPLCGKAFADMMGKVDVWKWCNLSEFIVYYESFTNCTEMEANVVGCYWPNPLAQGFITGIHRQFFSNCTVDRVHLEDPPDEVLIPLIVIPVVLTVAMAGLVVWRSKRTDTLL
How it was run: as §1

[7] = Chemical stability, alternative analysis in MilliQ water with pH adjusted, 40° C. (RP-HPLC); assay type: physicochemical
Procedure: In an alternative analysis, peptides were dissolved in MilliQ water and pH adjusted to 4.0, 7.5 or 9.0. Samples were placed in glass vials and incubated at 40° C. The samples were analyzed by RP-HPLC on a C8 column with gradient elution using a trifluoroacetic acid/acetonitrile/water eluent system. The area-percentage (area-%) of the main peak was determined by UV spectroscopy at 220 nm at each sampling time point.
The % degradation was calculated by subtracting the […].
The results of the chemical stability assessment after 8 days of incubation time are summarized as % degradation in Table 3 (below).

Row | Fibrillation (in buffer) pH4 acetate [1] | Fibrillation (in buffer) pH7 histidine [1] | Fibrillation (in buffer) pH7 phosphate [1] | % degradation after 72 h at 40° C. pH4 acetate [2] | % degradation after 14 days at 40° C. pH4 acetate ([2]; acetate buffer pH 4, 14 days) | % degradation after 72 h at 40° C. pH6 phosphate [2] | % degradation after 14 days at 40° C. pH6 phosphate [2] | % degradation after 72 h at 40° C. pH7 phosphate [2] | % degradation after 14 days at 40° C. pH7 phosphate [2] | half-life [3] | EC50 [5] | EC50 [6] | % degradation after 8 days at 40° C. pH4 ([7]; pH adjusted to 4.0, 8 days) | % degradation after 8 days at 40° C. pH7.5 ([7]; pH adjusted to 7.5, 8 days) | % degradation after 8 days at 40° C. pH9 ([7]; pH adjusted to 9.0, 8 days) | SMILES | Body weight reduction in % at 48 h [4] | Food intake reduction in % at 48 h [4]
1 | FND | FND | FND | <1% | <1% | <1% | 1.0% | <1% | 1.9% | 30.1 h | 0.085 nM | 0.031 nM |  |  |  | CC[C@H](C)[C@@H](C(=O)N[C@@H](CC(C)C)C(=O)N[C@@H](CO)C(=O)N[C@@H](CO)C(=O)N[C@H](C(=O)N[C@@H](CCC(=O)O)C(=O)N[C@H](C(=O)NCC(=O)N[C@@H](CO)C(=O)N[C@@H](CC(N)=O)C(=O)N[C@H](C(=O)N1C[C@H](O)C[C@H]1C(N)=O)[C@@H](C)O)C(C)C)[C@@H](C)O)N(C)C(=O)[C@H](C)NC(=O)CN(C)C(=O)[C@H](Cc1ccccc1)NC(=O)[C@H](CO)NC(=O)[C@H](CO)NC(=O)[C@H](CCCNC(=N)N)NC(=O)[C@H](CCC(N)=O)NC(=O)[C@H](CC(C)C)NC(=O)[C@H](Cc1ccccc1)NC(=O)[C@H](Cc1c[nH]cn1)NC(=O)[C@H](C)NC(=O)[C@H](CC(C)C)NC(=O)[C@H](CCCNC(=N)N)NC(=O)[C@H](CCC(=O)O)NC(=O)[C@@H](NC(=O)[C@H](C)NC(=O)[C@@H]1CCCCNC(=O)C[C@H](NC(=O)[C@H](CCCNC(=N)N)NC(=O)CC[C@H](NC(=O)CCCCCCCCCCCCCCCCCCC(=O)O)C(=O)O)C(=O)NCC(=O)N[C@@H]([C@@H](C)O)C(=O)N[C@@H](C)C(=O)N[C@@H]([C@@H](C)O)C(=O)N1)[C@@H](C)O [Compound 18, [19CD]-isoGlu-RD()GTATK()ATERLAHFLQRSSF-Gly(Me)-A-Ile(Me)-LSSTEVGSNT-Hyp-NH2] ({C20 diacid-γGlu}-RDGTATKATERLAHFLQRSSF[Sar]A[NMeI]LSSTEVGSNT[Hyp]-NH2; lactam 2-7) | 10% | 58%
2 | FD | FND | FND | 1.0% |  | 1.3% | <1% | 2.0% | 3.7% | 31.1 h | 0.009 nM | 0.003 nM |  |  |  | CC[C@H](C)[C@@H](C(=O)N[C@@H](CC(C)C)C(=O)N[C@@H](CO)C(=O)N[C@@H](CO)C(=O)N[C@H](C(=O)N[C@@H](CCC(=O)O)C(=O)N[C@H](C(=O)NCC(=O)N[C@@H](CO)C(=O)N[C@@H](CC(N)=O)C(=O)N[C@H](C(=O)N1C[C@H](O)C[C@H]1C(N)=O)[C@@H](C)O)C(C)C)[C@@H](C)O)N(C)C(=O)[C@H](C)NC(=O)CN(C)C(=O)[C@H](Cc1ccccc1)NC(=O)[C@H](CO)NC(=O)[C@H](CO)NC(=O)[C@H](CCCNC(=N)N)NC(=O)[C@H](CCC(N)=O)NC(=O)[C@H](CC(C)C)NC(=O)[C@H](Cc1ccccc1)NC(=O)[C@H](CCCC(=O)O)NC(=O)[C@H](C)NC(=O)[C@H](CC(C)C)NC(=O)[C@H](CCCNC(=N)N)NC(=O)[C@H](CCC(=O)O)NC(=O)[C@@H](NC(=O)[C@H](C)NC(=O)[C@@H]1CCCNC(=O)C[C@H](NC(=O)[C@H](CCCNC(=N)N)NC(=O)CC[C@H](NC(=O)CCCCCCCCCCCCCCCCCCC(=O)O)C(=O)O)C(=O)NCC(=O)N[C@@H]([C@@H](C)O)C(=O)N[C@@H](C)C(=O)N[C@@H]([C@@H](C)O)C(=O)N1)[C@@H](C)O [Compound 20, [19CD]-isoGlu-RD()GTAT-Orn()-ATERLA-Aad-FLQRSSF-Gly(Me)-A-Ile(Me)-LSSTEVGSNT-Hyp-NH2] ({C20 diacid-γGlu}-RDGTAT[Orn]ATERLA[Aad]FLQRSSF[Sar]A[NMeI]LSSTEVGSNT[Hyp]-NH2; lactam 2-7) | 7.8% | 49%
3 |  |  |  |  |  |  |  |  |  |  | 0.861 nM | 0.306 nM | 3.1% | 4.6% | 4.6% | CC[C@H](C)[C@@H](C(=O)N[C@@H](CC(C)C)C(=O)N[C@@H](CO)C(=O)N[C@@H](CO)C(=O)N[C@H](C(=O)N[C@@H](CCC(=O)O)C(=O)N[C@H](C(=O)NCC(=O)N[C@@H](CO)C(=O)N[C@@H](CC(N)=O)C(=O)N[C@H](C(=O)N1C[C@H](O)C[C@H]1C(N)=O)[C@@H](C)O)C(C)C)[C@@H](C)O)N(C)C(=O)[C@H](C)NC(=O)CN(C)C(=O)[C@H](Cc1ccccc1)NC(=O)[C@H](CO)NC(=O)[C@H](CO)NC(=O)[C@H](CCCNC(=N)N)NC(=O)[C@H](CCC(N)=O)NC(=O)[C@H](CC(C)C)NC(=O)[C@H](Cc1ccccc1)NC(=O)[C@H](Cc1c[nH]cn1)NC(=O)[C@H](C)NC(=O)[C@H](CC(C)C)NC(=O)[C@H](CCCNC(=N)N)NC(=O)[C@H](CCC(=O)O)NC(=O)[C@@H](NC(=O)[C@H](C)NC(=O)[C@@H]1CCNC(=O)CC[C@H](NC(=O)[C@H](CCCNC(=N)N)NC(=O)CC[C@H](NC(=O)CCCCCCCCCCCCCCCCCCC(=O)O)C(=O)O)C(=O)NCC(=O)N[C@@H]([C@@H](C)O)C(=O)N[C@@H](C)C(=O)N[C@@H]([C@@H](C)O)C(=O)N1)[C@@H](C)O [Compound 51, [19CD]-isoGlu-RE()GTAT-Dab()-ATERLAHFLQRSSF-Gly(Me)-A-Ile(Me)-LSSTEVGSNT-Hyp-NH2] ({C20 diacid-γGlu}-REGTAT[Dab]ATERLAHFLQRSSF[Sar]A[NMeI]LSSTEVGSNT[Hyp]-NH2; lactam 2-7) |  | 
